# PubChem BioAssay (NCI)
#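 48-hour exposure; five concentrations; linearly interpolated endpoints. Here, GI50 denotes the concentration required for 50% inhibition of growth. TGI marks complete inhibition of growth.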
# Key:
# Assay in all cases: NCI-60 cell line screen, 48 h
# A498 renal = system: A498 renal
# ACHN renal = system: ACHN renal
# HCT-15 colon = system: HCT-15 colon
# M14 melanoma = system: M14 melanoma
# NCI/ADR-RES ovarian = system: NCI/ADR-RES ovarian
# OVCAR-5 ovarian = system: OVCAR-5 ovarian
# OVCAR-8 ovarian = system: OVCAR-8 ovarian
# SF-539 CNS = system: SF-539 CNS
# SNB-75 CNS = system: SNB-75 CNS
# UACC-62 melanoma = system: UACC-62 melanoma
Compound,GI50 (A498 renal) [µM],TGI (A498 renal) [µM],GI50 (ACHN renal) [µM],TGI (ACHN renal) [µM],GI50 (HCT-15 colon) [µM],TGI (HCT-15 colon) [µM],GI50 (M14 melanoma) [µM],TGI (M14 melanoma) [µM],GI50 (NCI/ADR-RES ovarian) [µM],TGI (NCI/ADR-RES ovarian) [µM],GI50 (OVCAR-5 ovarian) [µM],TGI (OVCAR-5 ovarian) [µM],GI50 (OVCAR-8 ovarian) [µM],TGI (OVCAR-8 ovarian) [µM],GI50 (SF-539 CNS) [µM],TGI (SF-539 CNS) [µM],GI50 (SNB-75 CNS) [µM],TGI (SNB-75 CNS) [µM],GI50 (UACC-62 melanoma) [µM],TGI (UACC-62 melanoma) [µM]
COc1ccc(/C=C/c2nc(NCCCN(C)C)c3ccccc3n2)cc1,14,27.7,17.1,31.7,16.3,30.8,2.16,4.81,> 100,> 100,5.58,13.6,4.75,18.7,1.69,3.15,1.34,2.88,11.1,25.4
COc1ccc(-c2cc(/C=C3\C(=O)Nc4ccc(Cl)cc43)[nH]n2)cc1,3.83,16.3,5.71,18.4,2.8,14.2,4.02,15.2,3.85,17.7,8.67,21.1,6.59,20,2.63,7.68,2.26,8.49,5.56,18.5
O=C(Nc1ccc(Cl)cc1)c1ccc(NC2=C(Cl)C(=O)N(Cc3ccccc3)C2=O)cc1,17.7,47.8,15.7,35.3,24.4,> 100,15.2,35.8,4.14,14.8,14.1,28.1,7.92,28.1,17.5,41.3,20.1,52.5,17.9,44.3
NC1CCN(c2nc(Nc3cccc(C(F)(F)F)c3)c3c(=O)[nH]ccc3n2)CC1,1.64,3.14,0.944,2.21,0.584,2.26,1.01,2.23,1.87,3.63,1.68,3.44,2.06,4.91,1.77,3.26,1.77,3.19,1.83,3.51
CCCCCCCCCCN(CCCCCCCCCC)CC(=O)c1ccc2cc(Br)c3ccccc3c2c1,10.2,22.4,1.68,3.19,1.52,3.34,1.91,3.53,1.79,3.52,2.23,5.6,2.09,4.31,2.05,3.7,2.1,5.45,1.61,3.35
Cc1nc2ccc(Nc3nc(NCCN4CCOCC4)nc(Nc4ccc(F)cc4)n3)cc2n1Cc1ccccc1,1.35,5.13,2.78,17.5,2.16,5.68,1.86,3.66,3.79,40.1,2.71,13.6,3.28,> 100,1.63,3.23,1.59,4.82,2.27,6.18
CC[C@@]1(O)C(=O)NCc2c1cc1n(c2=O)Cc2cc3c(N)cccc3nc2-1,5.09,38.6,1.23,> 46.6,11.5,> 100,0.685,> 65.8,2.29,38.5,11.8,> 94.5,2.39,> 78.7,1.04,10.9,0.873,> 18.3,1.15,20.2
